Experimental data published in patent US4410516A, “1-N(αHydroxy-ω-aminoalkanoyl) derivatives of 5,3',4'-trideoxy- or 5,3', 4'-trideoxy-6'-N- methyl- or 5, 3', 4',6"-tetradeoxykannamyci B and production thereof” (Zaidan Hojin Biseibutsu Kagaku Kenkyu Kai, priority 1981, dated 1983).
≈ marks a conversion by molar mass, not a printed value. Where two headings read alike, the source gives them in different places.

Experiments:
Assay type in all cases: cell-based
[1] = tested on: Escherichia coli K-12 LA 290 R55; assay: Minimum inhibitory concentration, serial dilution on nutrient agar; details: K12LA290R55, 18 h
[2] = tested on: Escherichia coli K-12 R 388; assay: as above; details: K12R388, 18 h
Escherichia coli K-12 = assay: as above; details: K12, nutrient agar, 37° C., 18 hours incubation, read-out: MIC
Escherichia coli W677 = assay: as above; details: W677, nutrient agar, 37° C., 18 hours incubation, read-out: MIC
[3] = tested on: Pseudomonas maltophilia GN907; assay: as above; details: Stenotrophomonas maltophilia, 37° C., 18 hours incubation
[4] = tested on: Bacillus subtilis PCI 219; assay: as above; details: PCI219, 37° C., 18 hours incubation
[5] = tested on: Shigella flexneri 4b JS11811; assay: as above; details: 4BJS11811, 37° C., 18 hours incubation
From the text: (§1) The minimum inhibitory concentration (mcg/ml) of 1-N-[(S)-4-amino-2-hydroxybutyryl]-5,3',4'-trideoxykanamycin B (abbreviated as AHB-trideoxyKMB), 1-N-[(RS)-3-amino-2-hydroxypropionyl]-5,3',4'-trideoxykanamycin B (abbreviated as AHP-trideoxy-KMB) and 1-N-[(S)-4-amino-2-hydroxybutyryl]-5,3',4',6"-tetradeoxykanamycin B (abbreviated as AHB-tetradeoxyKMB) of the formula (II) according to this invention as well as of the new compound 5,3',4',6"-tetradeoxykanamycin B (abbreviated as tetradeoxyKMB) of the formula (III) according to this invention against various microorganisms were determined according to serial dilution method on a nutrient agar medium at 37° C., the estimation being made after 18 hours incubation. For comparison purpose, the minimum inhibitory concentrations of habekacin were also determined in the same manner as stated above.
(§2) The minimum inhibitory concentrations (mcg/ml) of 1-N-[(S)-4-amino-2-hydroxybutyryl]-5,3',4'-trideoxy-6'-N-methylkanamycin B (abbreviated as AHB-trideoxyMKMB), 1-N-[(RS)-3-amino-2-hydroxypropionyl]-5,3',4'-trideoxy-6'-N-methylkanamycin B (abbreviated as AHP-trideoxyMKMB) and 1-N-[(S)-5-amino-2-hydroxyvaleryl]-5,3',4'-trideoxy-6'-N-methylkanamycin B (abbreviated as AHV-trideoxyMKMB) of the formula (IV) according to this invention as well as of the new compound 5,3',4'-trideoxy-6'-N-methylkanamycin B (abbreviated as trideoxyMKMB) of the formula (V) according to this invention against various microorganisms were determined according to serial dilution method on a nutrient agar medium at 37° C., the estimation being made after 18 hours incubation. For comparison purpose, the minimum inhibitory concentrations of 1-N-[(S)-4-amino-2-hydroxybutyryl]-3',4'-dideoxykanamycin B (ie. habekacin) were also determined in the same manner as stated above.

Shigella sonnei JS11746 = assay: as above; details: 37° C., 18 hours incubation
From the text: as §1, §2

[6] = tested on: Escherichia coli K-12 ML 1630; assay: as above; details: K12ML1630, 37° C., 18 hours incubation
From the text: as §1, §2

[7] = tested on: Escherichia coli K-12 C 600R/35; assay: as above; details: K12C600R/35, 37° C., 18 hours incubation
From the text: as §1, §2

[8] = tested on: Escherichia coli K-12 J5R 11-2; assay: as above; details: K12J5R112, 37° C., 18 hours incubation
From the text: as §1, §2

[9] = tested on: Pseudomonas aeruginosa TI-13; assay: as above; details: TI13, nutrient agar, 37° C., 18 hours incubation, read-out: MIC
Bacillus anthracis = assay: microbe, parasite or virus in culture; details: 18 h
[10] = tested on: Pseudomonas aeruginosa No. 12; assay: Minimum inhibitory concentration, serial dilution on nutrient agar; details: NO.12, nutrient agar, 37° C., 18 hours incubation, read-out: MIC
[11] = tested on: Escherichia coli K-12 ML 1629; assay: as above; details: K12ML1629, nutrient agar, 37° C., 18 hours incubation, read-out: MIC
[12] = tested on: Micrococcus flavus FDA 16; assay: as above; details: FDA16, 18 h
Serratia marcescens = assay: as above; details: 37° C., 18 hours incubation
[13] = tested on: Bacillus cereus ATCC 10702; assay: as above
[14] = tested on: Mycobacterium smegmatis ATCC 607; assay: as above; details: Mycolicibacterium smegmatis, ATCC607; nutrient agar, 37° C., 18 hours incubation; read-out: MIC
[15] = tested on: Pseudomonas aeruginosa H11; assay: as above; details: H11, 18 h
Sarcina lutea PCI 1001 = assay: as above; details: Micrococcus luteus
[16] = tested on: Staphylococcus aureus AP01; assay: as above; details: 37° C., 18 hours incubation
Escherichia coli NIHJ = assay: as above; details: nutrient agar, 37° C., 18 hours incubation, read-out: MIC
Escherichia coli JR255 = assay: as above; details: JR255, nutrient agar, 37° C., 18 hours incubation, read-out: MIC
[17] = tested on: Pseudomonas aeruginosa 99; assay: as above
[18] = tested on: Escherichia coli JR66/W677; assay: as above
[19] = tested on: Pseudomonas aeruginosa PST1; assay: as above
[20] = tested on: Klebsiella pneumoniae 22 #3038; assay: as above
[21] = tested on: Salmonella enteritidis 1891; assay: as above; details: Salmonella enterica
[22] = nutrient agar, 37° C., 18 hours incubation, read-out: MIC

## NCC(O)C(=O)N[C@@H]1C[C@H](N)[C@@H](O[C@H]2O[C@H](CN)CC[C@H]2N)C[C@H]1O[C@H]1O[C@H](CO)[C@@H](O)[C@H](N)[C@H]1O (stereo partly drawn) [AHP-trideoxyKMB, 1-N-[(RS)-3-amino-2-hydroxypropionyl]-5,3',4'-trideoxykanamycin B]
[1]
  MIC: 3.13 µg/mL (≈ 5.99 µM)
[2]
  MIC: 1.56 µg/mL (≈ 2.99 µM)
Escherichia coli K-12
  MIC: 1.56 µg/mL (≈ 2.99 µM)
Escherichia coli W677
  MIC: 1.56 µg/mL (≈ 2.99 µM)
[3]
  MIC: > 100 µg/mL
[4]
  MIC: < 0.2 µg/mL
[5]
  MIC: 6.25 µg/mL (≈ 12 µM)
Shigella sonnei JS11746
  MIC: 6.25 µg/mL (≈ 12 µM)
[6]
  MIC: 3.13 µg/mL (≈ 5.99 µM)
[7]
  MIC: 1.56 µg/mL (≈ 2.99 µM)
[8]
  MIC: 1.56 µg/mL (≈ 2.99 µM)
[9]
  MIC: 3.13 µg/mL (≈ 5.99 µM)
Bacillus anthracis
  MIC: < 0.2 µg/mL
[10]
  MIC: 3.13 µg/mL (≈ 5.99 µM)
[11]
  MIC: 3.13 µg/mL (≈ 5.99 µM)
[12]
  MIC: 6.25 µg/mL (≈ 12 µM)
Serratia marcescens
  MIC: 25 µg/mL (≈ 47.8 µM)
[13]; ATCC10702, nutrient agar, 37° C., 18 hours incubation, read-out: MIC
  MIC: 0.78 µg/mL (≈ 1.49 µM)
[14]
  MIC: 0.2 µg/mL (≈ 0.383 µM)
[15]
  MIC: 6.25 µg/mL (≈ 12 µM)
Sarcina lutea PCI 1001; PCI1001, nutrient agar, 37° C., 18 hours incubation, read-out: MIC
  MIC: 0.78 µg/mL (≈ 1.49 µM)
[16]
  MIC: 0.78 µg/mL (≈ 1.49 µM)
Escherichia coli NIHJ
  MIC: 1.56 µg/mL (≈ 2.99 µM)
Escherichia coli JR255
  MIC: 1.56 µg/mL (≈ 2.99 µM)
[17]; Pseudomonas aeruginosa, 99, nutrient agar, 37° C., 18 hours incubation, read-out: MIC
  MIC: 3.13 µg/mL (≈ 5.99 µM)
[18]; JR66/W677, nutrient agar, 37° C., 18 hours incubation, read-out: MIC
  MIC: 3.13 µg/mL (≈ 5.99 µM)
[19]; PST1, 18 h
  MIC: 6.25 µg/mL (≈ 12 µM)
[20]; 18 h
  MIC: 6.25 µg/mL (≈ 12 µM)
[21]; 18 h
  MIC: 6.25 µg/mL (≈ 12 µM)

## NCC[C@H](O)C(=O)N[C@@H]1C[C@H](N)[C@@H](O[C@H]2O[C@H](CN)CC[C@H]2N)[C@H](O)[C@H]1O[C@H]1O[C@H](CO)[C@@H](O)[C@H](N)[C@H]1O [Habekacin, 1-N-[(S)-4-amino-2-hydroxybutyryl]-3',4'-dideoxykanamycin B, reference compound]
[1]
  MIC: 6.25 µg/mL (≈ 11.3 µM)
[2]
  MIC: 1.56 µg/mL (≈ 2.82 µM)
Escherichia coli K-12
  MIC: 3.13 µg/mL (≈ 5.66 µM)
Escherichia coli W677
  MIC: 3.13 µg/mL (≈ 5.66 µM)
[3]
  MIC: > 100 µg/mL
[4]
  MIC: < 0.2 µg/mL
[5]
  MIC: 6.25 µg/mL (≈ 11.3 µM)
Shigella sonnei JS11746
  MIC: 6.25 µg/mL (≈ 11.3 µM)
[6]
  MIC: 3.13 µg/mL (≈ 5.66 µM)
[7]
  MIC: 1.56 µg/mL (≈ 2.82 µM)
[8]
  MIC: 1.56 µg/mL (≈ 2.82 µM)
[9]
  MIC: 3.13 µg/mL (≈ 5.66 µM)
Bacillus anthracis
  MIC: < 0.2 µg/mL
[10]
  MIC: 3.13 µg/mL (≈ 5.66 µM)
[11]
  MIC: 3.13 µg/mL (≈ 5.66 µM)
[12]
  MIC: 1.56 µg/mL (≈ 2.82 µM)
Serratia marcescens
  MIC: 50 µg/mL (≈ 90.5 µM)
[13]; ATCC10702, 18 h
  MIC: 1.56 µg/mL (≈ 2.82 µM)
[14]
  MIC: 0.39 µg/mL (≈ 0.706 µM)
[15]
  MIC: 12.5 µg/mL (≈ 22.6 µM)
Sarcina lutea PCI 1001; PCI1001, 18 h
  MIC: 1.56 µg/mL (≈ 2.82 µM)
[16]
  MIC: 0.78 µg/mL (≈ 1.41 µM)
Escherichia coli NIHJ
  MIC: 3.13 µg/mL (≈ 5.66 µM)
Escherichia coli JR255
  MIC: 3.13 µg/mL (≈ 5.66 µM)
[17]; Pseudomonas aeruginosa, 99, 18 h
  MIC: 6.25 µg/mL (≈ 11.3 µM)
[18]; JR66/W677, 18 h
  MIC: 6.25 µg/mL (≈ 11.3 µM)
[19]; PST1, nutrient agar, 37° C., 18 hours incubation, read-out: MIC
  MIC: 25 µg/mL (≈ 45.2 µM)
[20]; [22]
  MIC: 3.13 µg/mL (≈ 5.66 µM)
[21]; [22]
  MIC: 3.13 µg/mL (≈ 5.66 µM)
